Results published in patent US8029770B2 (Rutgers, The State University, priority 2003, dated 2011).

How the values were obtained:
[1] = tested on: apoptotic sunburn cells in the epidermis of FVB mice; assay: UVB-induced apoptotic sunburn cells in FVB mice, topical caffeine; type: in vivo, mouse; details: 1.2 mg (6.2 μmole) in 100 μL acetone immediately, 0.5 and 2 hours after UVB 60 mJ/cm2; 6 hours
Source text: Apoptotic sunburn cells were identified by changes in morphology and counted.

[2] = tested on: UVB-induced skin tumors in tumor-bearing SKH-1 mice; assay: Growth of UVB-induced skin tumors in tumor-bearing SKH-1 mice; type: in vivo, mouse
Experimental: Female SKH-1 mice (7 to 8 weeks old) were treated with 30 mJ/cm^2 of UVB twice a week for 20 weeks. The UVB was stopped for 24 weeks. These tumor-bearing animals were divided into 2 groups (19 mice per group). […] The number (FIG. 1A) and size (FIG. 1B) of the tumors were recorded every 2 weeks.
The radius (r) was determined, and the volume was calculated by: volume=4πr^3/3.
Female SKH-1 mice were treated with 30 mJ/cm^2 of UVB twice a week for 20 weeks and UVB were stopped for 24 weeks. The resulting tumor-bearing animals were divided into 2 groups (19 mice per group). […] The number and size of the tumors were recorded every 2 weeks.

[3] = 4% in 100 mg DERMABASE once a day 5 days a week, 8 weeks (FIG. 1)

| Structure (SMILES) | enhancement of UVB-induced increase of apoptotic sunburn cells [1] | reduction in the number of tumors that developed per mouse vs DERMABASE [2, 3] [fold] | reduction in tumor volume per mouse vs DERMABASE [2, 3] [fold] | number and size of tumors ([2]; 4% in 100 mg DERMABASE, 8 weeks (FIG. 1A, 1B)) |
| --- | --- | --- | --- | --- |
| Cn1c(=O)c2c(ncn2C)n(C)c1=O [Caffeine, caffeine] | 120-150% | – | – | – |
| Cn1c(=O)c2c(ncn2C)n(C)c1=O.O=C([O-])c1ccccc1.[Na+] [Caffeine Sodium Benzoate, caffeine sodium benzoate] | – | 2 | ~3 | significantly reduced |
